Measured values: patent publication US9951061B2, “CaMKII inhibitors and uses thereof” (Allosteros Therapeutics, Inc., priority 2013, dated 2018)

Target: T1, CaMKIIδ (Homo sapiens, UniProt Q13557)
T1 construct: His/Gln tag (C)
Assay: In vitro CaMKIIδ activity (inhibition) assay, coupled assay measuring ADP released
Assay type: biochemical
Conditions: full length C-terminal His/Gln tagged CaMKIIδ construct, 16 nM; peptide substrate AC3; 25° C.
Description: An exemplary procedure for the in vitro CaMKIIδ inhibition assay, which can be used to determine the inhibitory action of compounds of the invention toward CaMKII, follows. The procedure is taken from Chao L H, et al., (2010) Nat Struct Mol Biol. 17(3): 264-272, which is incorporated herein by reference in its entirety.
The inhibition of CaMKII activity was evaluated using a coupled assay measuring ADP released following ATP hydrolysis and phosphor-transfer to the peptide substrate AC3 (KKALHRQETVDAL; SEQ ID NO: 1) (1). A full length, C-terminal His/Gln tagged CaMKIIδ construct was used (sequence in Table 2 below).
Compounds were added in 5 uL volume to wells in UV transparent 96-well plates (½ area well size). The final compound concentrations tested ranged from 0.5 nM to 10 uM). Assays were performed in duplicate. CaMKIIδ is added to at a final concentration of 16 nM to a mixture containing 100 mM Tris (pH 7.5), 150 mM KCl, 0.27 mM EGTA, 1.3 mM PEP, 0.2 mg/ml AC3, 6.9% (v/v) PK/LDH mixture (Sigma P0294), 0.38 mM NADH and kept on ice. 72 uL of the enzyme mixture was added to the wells containing compounds and the plate was shaken briefly and kept on ice. The assay was initiated by adding 23 uL of a mixture containing 100 mM Tris (pH 7.5), 150 mM KCl, 1.7 mM CaCl2, 48 mM MgCl2, 0.35 mM ATP and 6.7 ug/mL calmodulin. The rate of ADP released was measured as the rate of absorbance decrease at […] at 25° C. and plotted against the log of the compound concentration (FIG. 1). IC50 data were fitted using GraphPad Prism software.

T1 sequence (Q13557 whole entry, looked up): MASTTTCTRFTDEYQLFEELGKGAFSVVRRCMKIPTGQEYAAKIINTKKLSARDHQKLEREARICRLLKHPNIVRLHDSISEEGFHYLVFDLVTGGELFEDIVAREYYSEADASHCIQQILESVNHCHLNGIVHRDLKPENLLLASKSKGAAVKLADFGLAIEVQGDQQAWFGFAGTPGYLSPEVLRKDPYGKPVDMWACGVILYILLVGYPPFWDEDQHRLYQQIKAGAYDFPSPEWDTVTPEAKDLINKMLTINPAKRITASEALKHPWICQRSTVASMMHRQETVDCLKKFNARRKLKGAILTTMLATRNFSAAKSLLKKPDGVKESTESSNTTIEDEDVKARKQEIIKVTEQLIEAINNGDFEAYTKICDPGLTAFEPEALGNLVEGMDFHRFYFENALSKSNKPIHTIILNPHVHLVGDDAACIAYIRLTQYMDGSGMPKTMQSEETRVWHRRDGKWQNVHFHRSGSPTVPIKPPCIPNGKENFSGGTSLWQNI

Row | SMILES | IC50
1 | NCCCNc1cccc(-c2ccnc3[nH]c4ccccc4c23)c1 [Compound I-8, N1-(3-(9H-pyrido[2,3-b]indol-4-yl)phenyl)propane-1,3-diamine] | ≤ 50 nM
2 | Nc1cccc(-c2ccnc3[nH]c4ccccc4c23)c1 [Compound I-6, 3-(9H-pyrido[2,3-b]indol-4-yl)aniline] | 50 to 250 nM
3 | COc1ccc2c(c1)[nH]c1nccc(-c3cccc(NCCN)c3)c12 [Compound I-12, N1-(3-(7-methoxy-9H-pyrido[2,3-b]indol-4-yl)phenyl)ethane-1,2-diamine] | ≤ 50 nM
4 | c1cc(-c2ccnc3[nH]c4ccccc4c23)cc(-n2ccnc2)c1 [Compound I-2, 4-(3-(1H-imidazol-1-yl)phenyl)-9H-pyrido[2,3-b]indole] | ≥ 1000 nM
5 | NCCNc1cccc(-c2ccnc3[nH]c4ccccc4c23)c1 [Compound I-7, N1-(3-(9H-pyrido[2,3-b]indol-4-yl)phenyl)ethane-1,2-diamine] | ≤ 50 nM
6 | Cc1ccc2[nH]c3nccc(-c4cccc(NCCN)c4)c3c2c1 [Compound I-13, N1-(3-(6-methyl-9H-pyrido[2,3-b]indol-4-yl)phenyl)ethane-1,2-diamine] | ≤ 50 nM
7 | NCCNc1cccc(-c2ccnc3[nH]c4ccc(Cl)cc4c23)c1 [Compound I-14, N1-(3-(6-chloro-9H-pyrido[2,3-b]indol-4-yl)phenyl)ethane-1,2-diamine] | ≤ 50 nM
8 | NCCCOc1cccc(-c2ccnc3[nH]c4ccccc4c23)c1 [Compound I-10, 3-(3-(9H-pyrido[2,3-b]indol-4-yl)phenoxy)propan-1-amine] | ≤ 50 nM
9 | c1cc(-c2ccnc3[nH]c4ccccc4c23)cc(N2CCNCC2)c1 [Compound I-1, 4-(3-(piperazin-1-yl)phenyl)-9H-pyrido[2,3-b]indole] | 50 to 250 nM
10 | N=C(N)NCc1cccc(-c2ccnc3[nH]c4ccccc4c23)c1 [Compound I-5, 1-(3-(9H-pyrido[2,3-b]indol-4-yl)benzyl)guanidine] | 250 to 1000 nM
11 | N=C(N)Nc1cccc(-c2ccnc3[nH]c4ccccc4c23)c1 [Compound I-4, 1-(3-(9H-pyrido[2,3-b]indol-4-yl)phenyl)guanidine] | 50 to 250 nM
12 | NCCOc1cccc(-c2ccnc3[nH]c4ccccc4c23)c1 [Compound I-9, 2-(3-(9H-pyrido[2,3-b]indol-4-yl)phenoxy)ethanamine] | ≤ 50 nM
13 | NCc1cccc(-c2ccnc3[nH]c4ccccc4c23)c1 [Compound I-3, (3-(9H-pyrido[2,3-b]indol-4-yl)phenyl)methanamine] | ≥ 1000 nM
14 | Cc1ccc2c(c1)[nH]c1nccc(-c3cccc(NCCN)c3)c12 [Compound I-11] | ≤ 50 nM
